Measured values taken from US11905272B1, “3-(2-(4-methoxypyridin-3-yl)-4,5-diphenyl-1H-imidazol-1-yl)-N,N-dimethylpropan-1-amine as an anti-cancer compound” (KING FAISAL UNIVERSITY, priority 2023, dated 2024).

What was measured:
[1] = tested on: human prostate cancer cells (PC3); experiment: Assessment of cytotoxicity by SRB assay (PC3); format: cell-based; conditions: 0.01 μM to 100 μM, 72 h
Description: (§1) The human prostate cancer cells (PC3) and human osteosarcoma cells (MG-63) were obtained from Nawah Scientific Inc. (Mokatam, Cairo, Egypt) and cultured in DMEM (Dulbecco's modified eagle's medium), Gibco, USA, supplemented with fetal bovine serum (FBS) at a concentration of 10% and 100 U/mL of penicillin and streptomycin (PS). The Cells were incubated at 37° C. in a humidified environment that contained 5% CO2.
(§2) Cells were seeded in 96-well plates as aliquots of 100 μL cell suspension and incubated in a complete media for 24 h. Afterward, cells were treated with 3-(2-(4-methoxypyridin-3-yl)-4,5-diphenyl-1H-imidazol-1-yl)-N,N-dimethylpropan-1-amine at diverse concentrations ranging from 0.01 μM to 100 μM for 72 h. Then, cells were fixed at 4° C. for one hour with 150 μL of 10% trichloroacetic acid (TCA). After washing the cells five times with distilled water, 70 μL of sulforhodamine (SRB) solution (0.4% w/v) was added and incubated for 10 min at room temperature in a dark place. […] Then, 150 μL of Tris pH 10.5 (10 mM) was added, and the absorbance was measured at 540 nm using a BMG LABTECH®-FLUOstar Omega microplate reader (Ortenberg, Germany). Half maximal inhibitory concentrations (IC50) values were calculated for each experiment using GraphPad Prism 6 software. […]
(§3) The inhibition was calculated using the following equation: Inhibition %=100−Average Viability

[2] = tested on: human osteosarcoma cells (MG-63); experiment: Assessment of cytotoxicity by SRB assay (MG-63); format: cell-based; conditions: 0.01 μM to 100 μM, 72 h
Description: as §1, §2, §3

melting point: 128 to 131 °C
SMILES: COc1ccncc1-c1nc(-c2ccccc2)c(-c2ccccc2)n1CCCN(C)C [3-(2-(4-methoxypyridin-3-yl)-4,5-diphenyl-1H-imidazol-1-yl)-N,N-dimethylpropan-1-amine]
antiproliferative activity against cancer cells (PC3) [1]: excellent antiproliferative activities
antiproliferative activity against osteosarcoma (MG-63) cells [2]: excellent antiproliferative activities
